Measured values from patent US20070270488A1, “Treatment and Assays” (The Queen's University of Belfast, priority 2004, published 2007).
Like-named read-outs stand apart in the source and are kept apart here.

Legend:
Assay type in all cases: cell-based, human
[1] = tested on: HCT116 p53^+/+ parental cells; assay: MTT cytotoxicity assay, HCT116 p53^+/+ parental cells; settings: 72 h
Procedure: (§1) Tissue culture. HCT116 p53^+/+ and p53^−/− isogenic human colon cancer cells were kindly provided by Professor Bert Vogelstein (John Hopkins University, Baltimore, Md.). Drug-resistant HCT116 sub-lines were developed in the inventors' laboratory by repeated exposure to stepwise increasing concentrations of 5-FU, CPT-11 or oxaliplatin over a period of approximately ten months. Parental and drug-resistant HCT116 cell lines were grown in McCoy's 5A medium supplemented with 10% dialysed foetal calf serum (FCS), 50 μg/ml penicillin-streptomycin, 2 mM L-glutamine and 1 mM sodium pyruvate (all from GIBCO Invitrogen Corporation, Paisley, Scotland) and maintained at 37° C. in a humidified atmosphere containing 5% CO2. 5-FU-resistant p53^+/+ and p53^−/− HCT116 cells were maintained in the presence of 2 μM and 4 μM 5-FU respectively. CPT-11-resistant p53^+/+ and p53^−/− HCT116 cells were maintained in the presence of 1 μM and 3 μM CPT-11 respectively. […] Prior to each experiment, resistant sub-lines were cultured in the absence of drug for 48 hours.
(§2) Cytotoxicity studies. Cells were seeded at 2000 cells per well in 96-well microtiter plates. After 48 hours, cells were treated with a range of concentrations of 5-FU, CPT-11 or oxaliplatin.
(§3) After 72 hours, 25 μl of MTT dye (5 mg/ml) was added to each well and the plates were incubated at 37° C. for 3 hours. Dark-blue formazan crystals formed by live cells were dissolved in 200 μl of DMSO and absorbance in individual wells was determined at 570 nm using an Emax precision microplate reader (Molecular Devices, Sunnyvale, Calif.).

[2] = tested on: p53^+/+ 5-FU-resistant HCT116 cells; assay: MTT cytotoxicity assay, p53^+/+ 5-FU-resistant HCT116 cells; settings: for IC50: p53^+/+ 5-FU-resistant, MTT, 72 h
[3] = tested on: p53^+/+ oxaliplatin-resistant HCT116 cells; assay: MTT cytotoxicity assay, p53^+/+ oxaliplatin-resistant HCT116 cells; settings: for IC50: p53^+/+ oxaliplatin-resistant, MTT, 72 h; for increase in IC50 (72 hr) compared to parental cells: p53^+/+ oxaliplatin-resistant vs p53^+/+ parental
Procedure: as §1, §2, §3

[4] = tested on: p53^+/+ CPT-11-resistant HCT116 cells; assay: MTT cytotoxicity assay, p53^+/+ CPT-11-resistant HCT116 cells; settings: for IC50: p53^+/+ CPT-11-resistant, MTT, 72 h; for increase in IC50 (72 hr) compared to parental cells: p53^+/+ CPT-11-resistant vs p53^+/+ parental
[5] = tested on: HCT116 p53^−/− parental cells; assay: MTT cytotoxicity assay, HCT116 p53^−/− parental cells; settings: for IC50: MTT, 72 h
Procedure: as §1, §2, §3

[6] = tested on: p53^−/− 5-FU-resistant HCT116 cells; assay: MTT cytotoxicity assay, p53^−/− 5-FU-resistant HCT116 cells; settings: p53^−/− 5-FU-resistant, MTT, 72 h
[7] = tested on: p53^−/− oxaliplatin-resistant HCT116 cells; assay: MTT cytotoxicity assay, p53^−/− oxaliplatin-resistant HCT116 cells; settings: for IC50: p53^−/− oxaliplatin-resistant, MTT, 72 h; for increase in IC50 (72 hr) compared to parental cells: p53^−/− oxaliplatin-resistant vs p53^−/− parental
Procedure: as §1, §2, §3

[8] = tested on: p53^−/− CPT-11-resistant HCT116 cells; assay: MTT cytotoxicity assay, p53^−/− CPT-11-resistant HCT116 cells; settings: for IC50: p53^−/− CPT-11-resistant, MTT, 72 h; for increase in IC50 (72 hr) compared to parental cells: p53^−/− CPT-11-resistant vs p53^−/− parental
[9] = tested on: p53^+/+ HCT116 parental cells; assay: Flow cytometry cell cycle/apoptosis, p53^+/+ HCT116 parental cells; settings: 72 hours
[10] = tested on: p53^+/+ 5-FU-resistant HCT116 cells; assay: Flow cytometry cell cycle/apoptosis, p53^+/+ 5-FU-resistant cells; settings: p53^+/+ 5-FU-resistant cell line, data not shown
[11] = tested on: p53^+/+ CPT-11-resistant HCT116 cells; assay: Flow cytometry cell cycle/apoptosis, p53^+/+ CPT-11-resistant cells; settings: 72 hours
Procedure: as §1
(§4) Flow cytometry. Cells were seeded at 5×10^4 cells per well in 6-well plates. After 48 hours, cells were treated with a range of concentrations of 5-FU, CPT-11 or oxaliplatin. Seventy-two hours post-treatment, cells were harvested in 5 ml of 1× PBS/0.5 mM EDTA and pelleted by centrifugation at 1000 rpm/4° C. for 5 minutes. Cell pellets were washed once with 1× PBS/1% FCS, fixed in 70% ethanol and stained with propidium iodide. Analyses were performed on a Beckman Coulter Epics XL flow cytometer (Miami, Fla.).

[12] = tested on: p53^−/− HCT116 parental cells; assay: Flow cytometry cell cycle/apoptosis, p53^−/− HCT116 parental cells; settings: 72 hours; for drug-induced apoptosis in p53^−/− compared to p53^+/+ parental cells: range of concentrations
[13] = tested on: p53^−/− CPT-11-resistant HCT116 cells; assay: Flow cytometry cell cycle/apoptosis, p53^−/− CPT-11-resistant cells
p53^+/+ HCT116 cells = assay: PARP cleavage immunoblotting, p53^+/+ HCT116 cells; settings: 48 hours, Western blot
p53^−/− HCT116 cells = assay: PARP cleavage immunoblotting, p53^−/− HCT116 cells; settings: 48 hours, Western blot
[14] = tested on: p53^+/+ oxaliplatin-resistant HCT116 cells; assay: Flow cytometry cell cycle/apoptosis, p53^+/+ oxaliplatin-resistant cells; settings: 72 hours
Procedure: as §1, §4

[15] = tested on: p53^−/− oxaliplatin-resistant HCT116 cells; assay: Flow cytometry cell cycle/apoptosis, p53^−/− oxaliplatin-resistant cells; settings: same concentrations as parental (1 μM, 5 μM)
Procedure: as §1
Flow cytometry. Cells were seeded at 5×10^4 cells per well in 6-well plates. After 48 hours, cells were treated with a range of concentrations of 5-FU, CPT-11 or oxaliplatin. Seventy-two hours post-treatment, cells were harvested in 5 ml of 1× PBS/0.5 mM EDTA and pelleted by centrifugation at 1000 rpm/4° C. for 5 minutes. […]

[16] = Homo sapiens, HCT-116, read-out: IC50(72 h)
[17] = parental HCT116 p53^−/− vs p53^+/+
[18] = HCT116 p53^+/+ parental, read-out: IC50(72 h)
[19] = HCT116 p53^−/− parental, read-out: IC50(72 h)

## CCc1c2c(nc3ccc(OC(=O)N4CCC(N5CCCCC5)CC4)cc13)-c1cc3c(c(=O)n1C2)COC(=O)[C@]3(O)CC [CPT-11, irinotecan]
[1]; Homo sapiens, HCT-116, HCT116 p53^+/+ parental, read-out: IC50(72 h)
  IC50: 3.2 µM
[2]; [16]
  IC50: 7.2 µM
[2]; p53^+/+ 5-FU-resistant vs p53^+/+ parental
  increase in IC50 (72 hr) compared to parental cells: ~2 fold
[3]; [16]
  IC50: 2.9 µM
[4]; [16]
  IC50: 30.3 µM
[4]
  increase in IC50 (72 hr) compared to parental cells: 10.0 fold
[5]; Homo sapiens, HCT-116, HCT116 p53^−/− parental, read-out: IC50(72 h)
  IC50: 3.1 µM
[5]; [17]
  IC50 (72 h) in parental p53^+/+ and p53^−/− cells compared: almost identical
[6]; [16]
  IC50: 2.8 µM
[7]; [16]
  IC50: 3.5 µM
[8]; [16]
  IC50: 200 µM
[8]
  increase in IC50 (72 hr) compared to parental cells: 65.0 fold
[9]; 0.5 μM
  cell cycle distribution: accumulation of cells in S-phase
[9]; 1 μM
  cell cycle distribution: majority of cells were now arrested in G2/M
[9]; 5 μM
  cells in the sub-G0/G1 apoptotic phase: ~40%
[10]
  cross-resistance examined using flow cytometry: not apparent
[11]; 0.5 μM and 1 μM
  cell cycle distribution: almost completely insensitive
[11]; 5 μM
  cell cycle distribution: significant G2/M arrest and accumulation of polyploid cells
  degree of apoptosis: ~14%
[12]; 0.5 μM and 1 μM
  cell cycle distribution: dramatic G2/M cell cycle arrest
[12]; 5 μM, ~2% in control samples
  apoptotic cells: ~35%
[12]
  drug-induced apoptosis in p53^−/− compared to p53^+/+ parental cells: almost identical levels of apoptosis
[13]; 0.5 μM and 1 μM
  cell cycle distribution: no G2/M arrest was observed
[13]; 5 μM, 72 hours
  apoptosis: no apoptosis was observed
p53^+/+ HCT116 cells; 5 μM
  PARP cleavage: evident
p53^−/− HCT116 cells; 5 μM
  PARP cleavage: evident

## CCc1c2c(nc3ccc(O)cc13)-c1cc3c(c(=O)n1C2)COC(=O)[C@]3(O)CC [SN-38]
[1]; p53^+/+ Parental, read-out: SN-38 IC50(72 h)
  IC50: 0.0056 µM
[2]; read-out: SN-38 IC50(72 h)
  IC50: 0.0065 µM
[3]; read-out: SN-38 IC50(72 h)
  IC50: 0.0037 µM
[4]
  increase in IC50 (72 hr) compared to parental cells: ~10 fold
[4]; read-out: SN-38 IC50(72 h)
  IC50: 0.04 µM
[5]; p53^−/− Parental, read-out: SN-38 IC50(72 h)
  IC50: 0.0042 µM
[5]; [17]
  IC50 (72 h) in parental p53^+/+ and p53^−/− cells compared: similar
[6]; read-out: SN-38 IC50(72 h)
  IC50: 0.0036 µM
[7]; read-out: SN-38 IC50(72 h)
  IC50: 0.0033 µM
[8]
  increase in IC50 (72 hr) compared to parental cells: ~100 fold
[8]; read-out: SN-38 IC50(72 h)
  IC50: 0.54 µM

## N.N.O=C([O-])C1(C(=O)[O-])CCC1.[Pt+2] [carboplatin]
[1]; [18]
  IC50: 76 µM
[3]
  increase in IC50 (72 hr) compared to parental cells: ~2 fold
[3]; read-out: IC50(72 h)
  IC50: 176 µM
[5]; [19]
  IC50: 78.7 µM
[7]
  increase in IC50 (72 hr) compared to parental cells: ~2 fold
[7]; read-out: IC50(72 h)
  IC50: 141 µM

## N.N.[Cl][Pt][Cl] [cisplatin]
[1]; [18]
  IC50: 5.4 µM
[3]; read-out: IC50(72 h)
  IC50: 7.3 µM
[5]; [19]
  IC50: 5.7 µM
[7]; read-out: IC50(72 h)
  IC50: 6.7 µM

## O=C1[O][Pt]2([NH][C@@H]3CCCC[C@H]3[NH]2)[O]C1=O [oxaliplatin]
[1]; [18]
  IC50: 0.3 µM
[2]; read-out: IC50(72 h)
  IC50: 0.3 µM
[3]
  increase in IC50 (72 hr) compared to parental cells: 31.0 fold
[3]; read-out: IC50(72 h)
  IC50: 9.4 µM
[4]; read-out: IC50(72 h)
  IC50: 0.3 µM
[5]; [19]
  IC50: 1.7 µM
[5]; [17]
  increase in IC50 (72 h) dose in p53^−/− compared to p53^+/+ cells: 5.7 fold
[6]; read-out: IC50(72 h)
  IC50: 1.9 µM
[7]
  increase in IC50 (72 hr) compared to parental cells: 10.5 fold
[7]; read-out: IC50(72 h)
  IC50: 17.9 µM
[8]; read-out: IC50(72 h)
  IC50: 1.7 µM
[9]; 0.5 μM
  cell cycle distribution: majority of cells had arrested in G2/M-phase
[9]; 1 μM and 5 μM, ~2% in control samples
  proportion of apoptotic cells: 40-50%
[14]; 0.5 μM and 1 μM
  cell cycle distribution: unaffected
[14]; 5 μM
  cell cycle distribution: majority of cells were arrested in S-phase
[14]
  induction of apoptosis compared to parental cells: dramatically attenuated
[12]; 1 μM
  cell cycle distribution: S-phase block and a moderate increase in the polyploid fraction
[12]; 5 μM
  cell cycle distribution: majority of cells were arrested in G2/M phase
[12]
  drug-induced apoptosis in p53^−/− compared to p53^+/+ parental cells: significantly attenuated
[15]
  cell cycle distribution: no change in cell cycle distribution
p53^+/+ HCT116 cells; 1 μM
  PARP cleavage: observed
p53^−/− HCT116 cells; 1 μM
  PARP cleavage: not
